From US10829466B2, “Stilbene derivative and preparation method thereof” (BEIJING INSTITUTE OF TECHNOLOGY, priority 2015, dated 2020) come the findings set out here.

Structures are written as SMILES. Entries after “also recorded” stand apart in the source; their conditions may differ.

One series relates to HEK293. The experiment in a line: In vitro cytotoxicity experiment (MTT, cell survival). It counts as cell-based. The settings on record: HEK293, in vitro test, FIG. 3. As to the method:
Example 35: In Vitro Cytotoxicity Experiment the Experimental Cell Line is HEK293
Cells are cultured in a 96-well plate at a cell concentration of 5000/well. After 24 hours of cell culture, the drug treatment is performed and the experiment is carried out on two groups: the control group is added with DMSO with the same concentration as that for the experimental group; in the experimental group, each compound is tested at three doses of low, medium and high doses (100 μM; 500 μM; 1000 μM), and five parallels are tested at each dose; in the blank group, a complete medium is added with a compound to be tested with the same concentration as that for the experimental group. Constant temperature incubation is carried out for 24 h in a CO2 incubator, MTT with a final concentration of 0.5 mg/mL is then added; 4 hours later, 200 μL of DMSO solution is added, and the absorbance is measured at 490 nm. The cell survival is calculated according to the absorbance; Survival %=(Average concentration−Blank concentration)/(Average control concentration−Blank concentration)*100%.
Reference is made to FIG. 3 which illustrates an in vitro cytotoxicity test chart of a novel stilbene derivative according to an example of embodiments of the present invention.

Series [1] relates to neurogenesis in rat hippocampus. Description: Detection of neurogenesis in rat hippocampus by BrdU labeling (DAB immunohistochemistry). To be noted: under the test conditions of the embodiments, same dose. Type of series: in vivo. The text has this:
Example 36: Detection of Neurogenesis in Rat Hippocampus by BrdU (5-Bromo-2-deoxy Uridine, 5-bromodeoxyuridine) Labeling
Experimental animals: 10-week-old SD male rats having a body weight of about 300 g are purchased. The rats are used in experiments one week after being adapted to the environment in an animal room. Experimental groups: control group, drug group. 2-3 rats per group. Experimental reagent: injection oil is used to dissolve a compound to be tested. Rates in the control group are injected with the same dose of dissolving oil.
Test method: intraperitoneal injection is carried out 28 days at the injection dose of 0.5 ml-1 ml each time. Dose: 4 mg/Kg.
1) marker injection: BrdU (dissolved in sterile saline solution at a concentration of 10 mg/mL) solution is injected intraperitoneally into rats. (For rats with different body weights, the injection dose of BrdU is 50 mg·Kg^−1, injection is carried out twice every 2 hour; the intraperitoneal injection 24 hours before anesthesia ends.
2) Anesthesia: Anesthesia is performed by intraperitoneal injection of sodium pentobarbital solution into rats. (For rats with different body weights, the injection dose of sodium pentobarbital is usually 70 mg·Kg^−1.)
3) Cardiac perfusion: cardiac perfusion with normal saline is performed according to a general method.
4) Taking of brain tissues: The heads of the rats are separated from the bodies with surgical forceps and scissors, and then the muscles and membrane tissues at the top of the skulls are removed and brains are then gently peeled from the skulls. The separated brains are soaked in 4% paraformaldehyde for 24-48 hours.
5) Dehydration of brain tissues: the fixed tissues are soaked with a 20% sucrose PBS solution for more than 72 hours, and then the brain tissues are soaked with a 30% sucrose PBS solution for more than 72 hours.
6) Frozen section: the brain tissues are cut into […] thick sections by a general coronal section procedure.
7) DAB immunohistochemistry step: DNA denaturation is carried out and the sections are transferred to a 24-well plate (pH 7.4) perfused with 0.1 M PBS. The brain sections are incubated with 1% H2O2 for 30 minutes to remove […]; the sections are then treated with a 2M HCl solution for 30 minutes at room temperature to denature them. After completion of the denaturation, the brain sections are immersed in a 0.1 M sodium borate (pH 8.5) solution for 5 minutes and rinsed twice; the brain sections are incubated in 0.5% PBST for 1 hour at room temperature, and then are blocked for 1 hour with a serum blocking solution on a shaker at room temperature, and the serum blocking solution is from the same source as a secondary antibody; the samples are treated on the shaker with a BrdU primary antibody overnight at 4° C., and the BrdU primary antibody is diluted with the blocking solution; the samples are incubated with the biotinylated secondary antibody IgG for 2 hours at room temperature; a C (ABC kit) solution is incubated at room temperature for 2 hours; finally, after 3 to 5 minutes of color development by the DAB kit, the samples are mounted by using a PVP mounting medium and then dried, and finally the experimental results are detected under a microscope.
The dose-effect relationships of different compounds is further tested according to the method of Example 36, and the compounds include WS-54 (E-4-isobutyrylamino-3′,4′-methylenedioxy-stilbene), WS-69 (E-4-Methylsulfonamino-3′,4′-methylenedioxy-stilbene), WS-70 (E-4-Benzamino-3′,4′-methylenedioxy-stilbene), and WS-74 (E-4-Cyclopropylformamino-3′,4′-methylenedioxy-stilbene).
For orientation: Incorporation of labelled thymidine or its analogues reports DNA synthesis.

Series [2] has the same test system. The experiment in a line: BrdU and NeuN fluorescence double staining. Type of series: in vivo. The procedure: Example 37: Experimental Procedure of BrdU and NeuN Fluorescence Double Staining
The samples are obtained in the same manner as an Example 34. First, the DNA denaturation is performed, and the sections are transferred to a HCl solution perfused with 2 N, and treated at 37° C. for 60 minutes to be denatured. After completion of the denaturation, the brain sections are immersed in a 0.1 M sodium borate (pH 8.5) solution for 5 minutes and rinsed twice; the brain sections are then blocked for 1 hour with a serum blocking solution on a shaker at room temperature, and the serum blocking solution is from the same source as a secondary antibody; the samples are treated on the shaker with BrdU (1:500, Millipore) and NeuN (1:500, Abcam) primary antibodies overnight at 4° C., and the primary antibodies are diluted with the blocking solution; the samples are incubated with fluorescent secondary antibodies goat anti-mouse and goat anti-rabbits at room temperature (1:50, Zhongshanjinqiao) for 2 hours at room temperature in a dark place; the samples are mounted by using a fluorescent anti-quenching PVP mounting medium and then dried, and finally the experimental results are detected under a microscope. Control group and drug group (low dose L, 2 mg/Kg; medium dose M, 4 mg/Kg).

As to `CC(=O)Nc1ccc(/C=C/c2ccc3c(c2)OCO3)cc1` [WS-6, E-4-acetylamino-3′,4′-methylenedioxy-stilbene], the “neuronal cytotoxicity / neurotoxicity (in words)” value with HEK293 is reported as “further reduced in neurotoxicity as compared with WS-61; also recorded: greatly reduced”. The “neurogenesis activity (in words)” value in series [1] was “better neurogenesis activity”. In addition, the “dose relationship of NeuN+BrdU+ spots” value in series [2] (4 mg/Kg over 2 mg/Kg) is given as “can further enhance neurogenesis at the dose of 4 mg/Kg over the dose of 2 mg/Kg”. In series [2] (low dose 2 mg/Kg and medium dose 4 mg/Kg, FIG. 9), the “BrdU and NeuN double staining: neurogenesis” value is “can promote neurogenesis”.
